Assay results from patent US12465614B2, “Budesonide 21-phosphate salts and pharmaceutical compositions containing the same” (GENETIC S.P.A., priority 2020, dated 2025).

System: mice with OVA-induced allergic asthma
Test: BAL fluid cell counts, Bud vs Bud-21 P (Experimental Groups III)
Format: in vivo
Experimental: Male Balb/c SPF mice (25*2 g, 6-week-old) were purchased from the animal house facilities at the São Paulo School of Medicine (Federal University of São Paulo, Brazil). They were group-housed in a temperature-controlled room at 22° C. with a 12/12-hour light/dark cycle and allowed free access to food and water. The study is in agreement with the Ethical Principles for Animal Research established by the Brazilian College for Animal Experimentation (COBEA). According to the internal laboratory rules, euthanasia is performed if severe distress related to the test agents developed during the experiment.
In Protocol 3, the test compounds budesonide (Bud; MW: 430.53 g/mol) and budesonide 21-phosphate free acid (Bud-21 P; MW: 510.51 g/mol) were administered at equimolar doses of 3, 10 and 30 nmol/animal/day, equivalent to 1.3, 4.3 and 12.9 μg/animal/day of Bud, 1.5, 5.1 and 15.3 μg/animal/day of Bud-21 P, respectively. […]
After Penh evaluation, the mice were anesthetized with inhaled isofluorane (5% v/v in O2) and blood samples were collected from the descending abdominal aorta. […] Total cell counts were determined using a Neubauer chamber, and differential counting was carried out in cytospin (Fanem Mod 2400; São Paulo, Brazil) preparations stained with May-Grünwald dye. […]

SMILES: CCCC1OC2CC3C4CCC5=CC(=O)C=CC5(C)C4C(O)CC3(C)C2(C(=O)CO)O1 (stereo not drawn) [Bud, 11β,21-dihydroxy-16α,17α-(butylidenebis(oxy))pregna-1,4-diene-3.20-dione]
- total BAL leukocytes compared with Sham (3 nmol/animal/day i.n.): still significantly higher than that observed in the Sham mice
- BAL macrophages compared with Sham (3 or 10 nmol/animal/day i.n.): still significantly higher than those observed in the Sham group
